Here are results for 34 molecules from patent US20230390319A1, “INTERFERON GENE STIMULATOR COMPOSITION COMPRISING INDOLIZINE DERIVATIVE AS ACTIVE INGREDIENT” (AJOU UNIVERSITY INDUSTRY-ACADEMIC COOPERATION FOUNDATION, priority 2020, published 2023).

For one series, the system named is ISRE reporter signal. In words: ISRE luciferase reporter assay, THP-1 cells co-treated with compound and cGAMP. In kind it is cell-based, Human. As to conditions: THP-1 cells, 20 μM of each compound, co-treated with cGAMP (1 μg/ml), 24 hours. On the procedure: (§1) Human monocytic THP-1 wild-type (WT) and STING knockout (KO) cell lines were obtained from InvivoGen. Cells were cultured in 1×RPMI 1640 medium containing 10% fetal bovine serum (FBS, Hyclone), 2.05 mM L-glutamine (Hyclone) and 1% penicillin (Corning) in a humidified incubator at 37° C. under 5% CO2.
To confirm immune responses, THP-1 cells were placed in 384-well plates (Grenier), and treated with each compound and cGAMP (1 μg/ml), and after 24 hours, ISRE activity was analyzed. QUANTI-Luc assay (InvivoGen) was performed using the cell culture supernatant to confirm the luciferase reporter gene signal. Fluorescent signals were measured using a TECAN micro plate reader SPARK, and the results were normalized to DMSO control.
(§2) THP-1 cells were co-treated with each of 86 indolizine derivatives and a very small amount of cGAMP (1 μg/ml), the immune response of the THP-1 cells was examined by ISRE reporter assay, and the cytotoxicity of co-treatment was also evaluated (Table 1). All results were compared by normalization to the reporter assay results obtained by treatment with cGAMP alone. […] Thus, Compound 42 was used in subsequent experiments.

Another series relates to THP-1 cells. In words: Cell viability assay (CellTiter Clo) in THP-1 cells. It is filed as cell-based, Human. As to conditions: THP-1 cells, 20 μM of each compound, co-treated with cGAMP (1 μg/ml). On the procedure: as §1
Cells were analyzed using CellTiter Clo (CTG, Promega). […] was measured using a TECAN micro plate reader SPARK. Results were normalized to DMSO control.
as §2

For the molecule `O=C(c1ccc(C(F)(F)F)cc1)c1cc(-c2ccc(C(F)(F)F)cc2)c2cc(C(F)(F)F)ccn12` [Compound 1], in the series with ISRE reporter signal, the “Normalized RU (relative unit of ISRE reporter signal)” value worked out at 1.46. The Normalized cell viability in the series with THP-1 cells was 1.10.

In the case of `CC(=O)c1ccc(-c2cc(C(=O)c3ccc(C(F)(F)F)cc3)n3ccc(C(F)(F)F)cc23)cc1` [Compound 2], the “Normalized RU (relative unit of ISRE reporter signal)” value in the series on ISRE reporter signal turned out to be 1.42. For the same molecule, in the series on THP-1 cells, the Normalized cell viability is given as 1.03.

`O=C(c1ccc(C(F)(F)F)cc1)c1cc(-c2ccccc2)c2cc(C(F)(F)F)ccn12` [Compound 3]: the “Normalized RU (relative unit of ISRE reporter signal)” value in the series on ISRE reporter signal is 1.40. For the same molecule, the Normalized cell viability in the series on THP-1 cells worked out at 1.04.

For the molecule `COc1ccc(-c2cc(C(=O)c3ccc(C(F)(F)F)cc3)n3ccc(C(F)(F)F)cc23)cc1` [Compound 4], the “Normalized RU (relative unit of ISRE reporter signal)” value in the series on ISRE reporter signal came to 1.33. In addition, in the series on THP-1 cells, the Normalized cell viability worked out at 1.05.

As for `CN(C)c1ccc(-c2cc(C(=O)c3ccc(C(F)(F)F)cc3)n3ccc(C(F)(F)F)cc23)cc1` [Compound 5], in the series with ISRE reporter signal, the “Normalized RU (relative unit of ISRE reporter signal)” value amounted to 1.58. Moreover, the Normalized cell viability with THP-1 cells is recorded as 1.05.

With `O=C(c1ccccc1)c1cc(-c2ccc(C(F)(F)F)cc2)c2cc(C(F)(F)F)ccn12` [Compound 6], the “Normalized RU (relative unit of ISRE reporter signal)” value in the series on ISRE reporter signal is 1.38. For the same molecule, in the series on THP-1 cells, the Normalized cell viability turned out to be 1.19.

As to `CC(=O)c1ccc(-c2cc(C(=O)c3ccccc3)n3ccc(C(F)(F)F)cc23)cc1` [Compound 7], the “Normalized RU (relative unit of ISRE reporter signal)” value with ISRE reporter signal is 1.54. The Normalized cell viability in the series with THP-1 cells came to 1.20.

`O=C(c1ccccc1)c1cc(-c2ccccc2)c2cc(C(F)(F)F)ccn12` [Compound 8]: in the series with ISRE reporter signal, the “Normalized RU (relative unit of ISRE reporter signal)” value worked out at 1.18. In addition, the Normalized cell viability in the series on THP-1 cells was 1.06.

As to `COc1ccc(-c2cc(C(=O)c3ccccc3)n3ccc(C(F)(F)F)cc23)cc1` [Compound 9], in the series on ISRE reporter signal, the “Normalized RU (relative unit of ISRE reporter signal)” value worked out at 1.21. Further, in the series on THP-1 cells, the Normalized cell viability was found to be 1.03.

In the case of `CN(C)c1ccc(-c2cc(C(=O)c3ccccc3)n3ccc(C(F)(F)F)cc23)cc1` [Compound 10], the “Normalized RU (relative unit of ISRE reporter signal)” value in the series on ISRE reporter signal is 1.67. Further, the Normalized cell viability with THP-1 cells is listed as 1.21.

For `COc1ccc(C(=O)c2cc(-c3ccc(C(F)(F)F)cc3)c3cc(C(F)(F)F)ccn23)cc1` [Compound 11], the “Normalized RU (relative unit of ISRE reporter signal)” value with ISRE reporter signal was 2.02. Besides, in the series with THP-1 cells, the Normalized cell viability was 1.16.

`COc1ccc(C(=O)c2cc(-c3ccc(C(C)=O)cc3)c3cc(C(F)(F)F)ccn23)cc1` [Compound 12]: the “Normalized RU (relative unit of ISRE reporter signal)” value with ISRE reporter signal is listed as 1.31. In addition, the Normalized cell viability with THP-1 cells is reported as 1.25.

On to `COc1ccc(C(=O)c2cc(-c3ccccc3)c3cc(C(F)(F)F)ccn23)cc1` [Compound 13], for which the “Normalized RU (relative unit of ISRE reporter signal)” value with ISRE reporter signal is 1.62. In addition, the Normalized cell viability in the series with THP-1 cells is listed as 1.14.

`COc1ccc(C(=O)c2cc(-c3ccc(OC)cc3)c3cc(C(F)(F)F)ccn23)cc1` [Compound 14]: in the series with ISRE reporter signal, the “Normalized RU (relative unit of ISRE reporter signal)” value was determined as 1.48. Further, the Normalized cell viability in the series with THP-1 cells is given as 1.30.

Turning to `COc1ccc(C(=O)c2cc(-c3ccc(N(C)C)cc3)c3cc(C(F)(F)F)ccn23)cc1` [Compound 15], the “Normalized RU (relative unit of ISRE reporter signal)” value with ISRE reporter signal is 1.18. The Normalized cell viability with THP-1 cells was found to be 1.17.

Turning to `CCN(CC)c1ccc(C(=O)c2cc(-c3ccc(C(F)(F)F)cc3)c3cc(C(F)(F)F)ccn23)cc1` [Compound 16], the “Normalized RU (relative unit of ISRE reporter signal)” value in the series with ISRE reporter signal amounted to 1.66. Moreover, the Normalized cell viability in the series on THP-1 cells came to 1.22.

For `CCN(CC)c1ccc(C(=O)c2cc(-c3ccc(C(C)=O)cc3)c3cc(C(F)(F)F)ccn23)cc1` [Compound 17], the “Normalized RU (relative unit of ISRE reporter signal)” value with ISRE reporter signal is 1.45. The Normalized cell viability with THP-1 cells came out at 1.29.

In the case of `CCN(CC)c1ccc(C(=O)c2cc(-c3ccccc3)c3cc(C(F)(F)F)ccn23)cc1` [Compound 18], the “Normalized RU (relative unit of ISRE reporter signal)” value in the series with ISRE reporter signal is 1.85. Moreover, the Normalized cell viability in the series with THP-1 cells was found to be 1.17.

Turning to `CCN(CC)c1ccc(C(=O)c2cc(-c3ccc(OC)cc3)c3cc(C(F)(F)F)ccn23)cc1` [Compound 19], in the series with ISRE reporter signal, the “Normalized RU (relative unit of ISRE reporter signal)” value is recorded as 1.58. Moreover, the Normalized cell viability in the series on THP-1 cells is 1.29.

Regarding `CCN(CC)c1ccc(C(=O)c2cc(-c3ccc(N(C)C)cc3)c3cc(C(F)(F)F)ccn23)cc1` [Compound 20], the “Normalized RU (relative unit of ISRE reporter signal)” value in the series with ISRE reporter signal stood at 1.46. Further, the Normalized cell viability in the series on THP-1 cells stood at 1.05.

On to `CC(=O)c1ccn2c(C(=O)c3ccc(C(F)(F)F)cc3)cc(-c3ccc(C(F)(F)F)cc3)c2c1` [Compound 21], for which the “Normalized RU (relative unit of ISRE reporter signal)” value in the series on ISRE reporter signal amounted to 1.86. Also, the Normalized cell viability with THP-1 cells came to 1.19.

In the case of `CC(=O)c1ccc(-c2cc(C(=O)c3ccc(C(F)(F)F)cc3)n3ccc(C(C)=O)cc23)cc1` [Compound 22], the “Normalized RU (relative unit of ISRE reporter signal)” value with ISRE reporter signal was 1.31. Further, the Normalized cell viability in the series on THP-1 cells came to 1.09.

For the molecule `CC(=O)c1ccn2c(C(=O)c3ccc(C(F)(F)F)cc3)cc(-c3ccccc3)c2c1` [Compound 23], the “Normalized RU (relative unit of ISRE reporter signal)” value in the series with ISRE reporter signal amounted to 1.23. Further, in the series with THP-1 cells, the Normalized cell viability was determined as 1.11.

For `COc1ccc(-c2cc(C(=O)c3ccc(C(F)(F)F)cc3)n3ccc(C(C)=O)cc23)cc1` [Compound 24], the “Normalized RU (relative unit of ISRE reporter signal)” value in the series on ISRE reporter signal is 1.33. Besides, in the series with THP-1 cells, the Normalized cell viability is reported as 1.21.

Turning to `CC(=O)c1ccn2c(C(=O)c3ccc(C(F)(F)F)cc3)cc(-c3ccc(N(C)C)cc3)c2c1` [Compound 25], the “Normalized RU (relative unit of ISRE reporter signal)” value with ISRE reporter signal worked out at 1.75. Besides, the Normalized cell viability in the series with THP-1 cells came to 1.12.

Regarding `CC(=O)c1ccn2c(C(=O)c3ccccc3)cc(-c3ccc(C(F)(F)F)cc3)c2c1` [Compound 26], the “Normalized RU (relative unit of ISRE reporter signal)” value with ISRE reporter signal is 1.60. Besides, the Normalized cell viability in the series with THP-1 cells amounted to 1.21.

Consider `CC(=O)c1ccc(-c2cc(C(=O)c3ccccc3)n3ccc(C(C)=O)cc23)cc1` [Compound 27], for which the “Normalized RU (relative unit of ISRE reporter signal)” value with ISRE reporter signal is recorded as 1.18. The Normalized cell viability in the series on THP-1 cells is given as 1.17.

Consider `CC(=O)c1ccn2c(C(=O)c3ccccc3)cc(-c3ccccc3)c2c1` [Compound 28], for which the “Normalized RU (relative unit of ISRE reporter signal)” value in the series on ISRE reporter signal came out at 1.69. The Normalized cell viability with THP-1 cells came out at 1.13.

With `COc1ccc(-c2cc(C(=O)c3ccccc3)n3ccc(C(C)=O)cc23)cc1` [Compound 29], the “Normalized RU (relative unit of ISRE reporter signal)” value in the series on ISRE reporter signal was 1.00. Moreover, the Normalized cell viability in the series on THP-1 cells turned out to be 1.20.

As to `CC(=O)c1ccn2c(C(=O)c3ccccc3)cc(-c3ccc(N(C)C)cc3)c2c1` [Compound 30], the “Normalized RU (relative unit of ISRE reporter signal)” value in the series with ISRE reporter signal stood at 1.33. In addition, in the series on THP-1 cells, the Normalized cell viability was found to be 1.26.

Consider `COc1ccc(C(=O)c2cc(-c3ccc(C(F)(F)F)cc3)c3cc(C(C)=O)ccn23)cc1` [Compound 31], for which the “Normalized RU (relative unit of ISRE reporter signal)” value in the series with ISRE reporter signal was determined as 3.42. Besides, the Normalized cell viability in the series on THP-1 cells amounted to 1.33.

For `COc1ccc(C(=O)c2cc(-c3ccc(C(C)=O)cc3)c3cc(C(C)=O)ccn23)cc1` [Compound 32], in the series on ISRE reporter signal, the “Normalized RU (relative unit of ISRE reporter signal)” value is recorded as 2.91. The Normalized cell viability in the series on THP-1 cells is 1.11.

As for `COc1ccc(C(=O)c2cc(-c3ccccc3)c3cc(C(C)=O)ccn23)cc1` [Compound 33], in the series with ISRE reporter signal, the “Normalized RU (relative unit of ISRE reporter signal)” value is 2.18. For the same molecule, the Normalized cell viability with THP-1 cells stood at 1.22.

In the case of `COc1ccc(C(=O)c2cc(-c3ccc(OC)cc3)c3cc(C(C)=O)ccn23)cc1` [Compound 34], the “Normalized RU (relative unit of ISRE reporter signal)” value with ISRE reporter signal is recorded as 1.52. Also, in the series on THP-1 cells, the Normalized cell viability came out at 1.26.
